Measured values reported in patent US20200254041A1, “RAPID ONSET AND EXTENDED ACTION PLANT-BASED AND SYNTHETIC CANNABINOID FORMULATIONS” (RECEPTOR HOLDINGS, INC., priority 2017, published 2020).
Converted amounts (≈) assume the structure as drawn.

What was measured:
[1] = Cannabis/SNAC oral rat pharmacokinetic (PK) study; assay type: in vivo; conditions: rats; for AUC0-Tlast increase over the cannabis alone group / Cmax increase over the cannabis alone group: 500 mg/kg SNAC and 50 mg/kg cannabis extract vs 25 mg/kg cannabis alone; for AUC compared to the cannabis alone group: 25 mg/kg cannabis extract
Protocol: Summary of cannabis/SNAC oral rat pharmacokinetic (PK) study.
Methods. Animals were dosed on Day 1 and a series of blood samples were collected over a period of 4 hours post dose for pharmacokinetic evaluation. Animals were euthanized following collection of their last blood sample.

[2] = cited from earlier work
[3] = tested on: study participants; experiment: Onset and duration of action of orally administered cannabis/SNAC formulation at a low SNAC dose (100 mg); participant-reported euphoria; assay type: in vivo, human; conditions: 100 mg SNAC in oral cannabis formulation
Protocol: This study was designed to assess the utility of SNAC in enabling a rapid-acting oral form of cannabis at a low dose.
Selection of Participants. Three study participants were recruited to ingest cannabis formulations and record the onset, duration, and intensity of cannabis-induced euphoria and/or dysphoria.
(§1) Formulations. The selected cannabis concentrate is commercially available and was provided to participants in an ethanol solution. The concentrate contains 8 mg THC per dose. It was selected because it contains a high percentage of THC, which provides a noticeable effect on user-reported “euphoria”.
(§2) Methods. For the Control experiment, each participant mixed the cannabis concentrate with 15 ml (one tablespoon) of aqueous ethanol, and immediately swallowed the mixture.
(§3) For both the Control experiment and the Test experiment, each participant recorded the time of dose administration, the time of onset of euphoria and/or dysphoria, and the observed level of euphoria and/or dysphoria in fifteen minute intervals for five hours following administration of the cannabis dose. Euphoria and dysphoria were reported using a scale value, in a range from 1-10.

[4] = tested on: study participants; experiment: Onset and duration of action of orally administered cannabis/SNAC formulation (200 mg SNAC) vs cannabis-only control; participant-reported euphoria/dysphoria; assay type: in vivo, human; conditions: 200 mg SNAC in oral cannabis formulation
Protocol: This study was designed to assess the utility of SNAC in enabling a rapid-acting oral form of cannabis.
Selection of Participants. Six study participants were recruited to ingest cannabis formulations and record the onset, duration, and intensity of cannabis-induced euphoria and/or dysphoria.
as §1, §2, §3

[5] = cited from earlier work; remark: listed apart in the source
[6] = 25 mg/kg cannabis extract with SNAC at either 250 or 500 mg/kg

## C=C(C)[C@@H]1CCC(C)=C[C@H]1c1c(O)cc(CCCCC)cc1O [CBD, cannabidiol]
[1]; 25 mg/kg cannabis extract with SNAC 250 mg/kg
  Cmax increase over cannabis alone: 2.9 fold
[1]; 25 mg/kg cannabis extract with SNAC 500 mg/kg
  Cmax increase over cannabis alone: 2.8 fold
[1]; [6]
  Cmax increase over cannabis alone: 2.8 fold
[1]
  AUC0-Tlast increase over the cannabis alone group: 22.1 fold
  Cmax increase over the cannabis alone group: 14.2 fold
[2]
  water solubility (in words): very low or no solubility in water

## COc1cc(CNC(=O)CCCC/C=C/C(C)C)ccc1O [Capsaicin]
[2]
  water solubility (in words): low water solubility

## COc1cc(/C=C/C(=O)CC(=O)/C=C/c2ccc(O)c(OC)c2)ccc1O [Curcumin]
[2]
  aqueous solubility: < 0.1 mg/mL

## C=CCc1ccc(O)c(OC)c1 [Eugenol]
[2]
  water solubility (in words): low water solubility

## COc1ccc([C@@H]2CC(=O)c3c(O)cc(O[C@@H]4O[C@H](CO[C@@H]5O[C@@H](C)[C@H](O)[C@@H](O)[C@H]5O)[C@@H](O)[C@H](O)[C@H]4O)cc3O2)cc1O [Hesperidin]
[2]
  water solubility (in words): low water solubility

## Cc1cc(O)c2c(=O)c3c(O)cc(O)c4c5c(O)cc(O)c6c(=O)c7c(O)cc(C)c8c1c2c(c34)c(c78)c65 [Hypericin]
[2]
  water solubility (in words): insoluble in water

## C=CC(C)(O)CCC=C(C)C (stereo not shown) [Linalool]
[2]
  water solubility (in words): low water solubility

## C[C@@H]1O[C@@H](O[C@H]2[C@H](Oc3cc(O)c4c(c3)O[C@H](c3ccc(O)cc3)CC4=O)O[C@H](CO)[C@@H](O)[C@@H]2O)[C@H](O)[C@H](O)[C@H]1O [Naringin]
[2]
  water solubility (in words): low water solubility

## C[C@@H]1O[C@@H](Oc2c(-c3ccc(O)c(O)c3)oc3cc(O)cc(O)c3c2=O)[C@H](O)[C@H](O)[C@H]1O [Quercitrin]
[2]
  water solubility (in words): low water solubility

## COC(=O)[C@H]1[C@H]2C[C@@H]3c4[nH]c5cc(OC)ccc5c4CCN3C[C@H]2C[C@@H](OC(=O)c2cc(OC)c(OC)c(OC)c2)[C@@H]1OC [Reserpine]
[2]
  water solubility (in words): low water solubility

## Oc1ccc(C=Cc2cc(O)cc(O)c2)cc1 [Resveratrol]
[2]
  aqueous solubility: 0.03 mg/mL (≈ 131 µM)

## C[C@@H]1O[C@@H](OC[C@H]2O[C@@H](Oc3c(-c4ccc(O)c(O)c4)oc4cc(O)cc(O)c4c3=O)[C@H](O)[C@@H](O)[C@@H]2O)[C@H](O)[C@H](O)[C@H]1O [Rutin]
[2]
  water solubility (in words): low water solubility

## O=C([O-])CCCCCCCNC(=O)c1ccccc1O.[Na+] [SNAC, sodium N-[8-(2-hydroxybenzoyl)amino] caprylate]
[3]
  effect of the absorption enhancer on the duration of action of cannabis: no effect on the duration of action of cannabis
[4]
  effect of the absorption enhancer on the duration of action of cannabis: no effect on the duration of action of cannabis

## CCCCCc1cc(O)c2c(c1)OC(C)(C)[C@@H]1CCC(C)=C[C@@H]21 [THC, delta-9-tetrahydrocannabinol]
[1]; [6]
  Cmax increase over cannabis alone: 1.4 fold
[1]; 250 mg/kg SNAC group
  AUC compared to the cannabis alone group: 1.1 fold
[1]; 500 mg/kg SNAC group
  AUC compared to the cannabis alone group: lower
[1]; both SNAC groups (250 and 500 mg/kg)
  AUC compared to the cannabis alone group: comparable
[1]
  AUC0-Tlast increase over the cannabis alone group: 6.3 fold
  Cmax increase over the cannabis alone group: 6.9 fold
[5]; after oral administration
  duration of action / effects: 4 to 6 h
  onset of action: up to 1.5 hours
  peak effect at: 2 to 4 h
[5]; after single oral doses
  absorbed: 90-95%
[5]; oral, first pass hepatic metabolism and poor aqueous solubility
  administered dose that reaches the systemic circulation: 4-20%

## CC[C@]1(O)C[C@@H]2CN(CCc3c([nH]c4ccccc34)[C@@](C(=O)OC)(c3cc4c(cc3OC)N(C)[C@H]3[C@@](O)(C(=O)OC)[C@H](OC(C)=O)[C@]5(CC)C=CCN6CC[C@]43[C@@H]65)C2)C1 [Vinblastine]
[2]
  water solubility (in words): low water solubility
